These results are taken from US10233201B2, “Class of HDAC inhibitors expands the renal progenitor cells population and improves the rate of recovery from acute kidney injury” (University of Pittsburgh—Of the Commonwealth System of …, priority 2012, dated 2019).

Test [1] concerns renal progenitor cells (lhx1a expression). Kind of test: In situ hybridization for lhx1a expression in 10-somite embryos (renal progenitor cell expansion). On lhx1a expansion class, 800 nM: key: effective (+); partially effective (+/−); ineffective (−); Analogs that killed all embryos at a given concentration before reaching 10 somites are listed as XX. The class given is in vivo. The settings on record: for lhx1a expansion class, 800 nM: 800 nM from 2 hpf. The gist of the method: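 Zebrafish embryos treated with compound, then colorimetric whole-mount in situ hybridization for lhx1a mRNA at 10-somite stage (hybridization 65 °C). Percent embryos with expanded kidney field counted manually; EC50 read as the 50% point of the plotted curve.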

Another test deals with renal progenitor cells. The test is described as follows: Tg(lhx1a:EGFP) reporter: renal progenitor cell counting. In kind it is in vivo, zebrafish. The method, then:
Tg(lhx1a:EGFP)^pt303 embryos were treated with 3 μM PTBA and then fixed in 4% paraformaldehyde in PBS for 8 hours at 4° C. Embryos were washed in PBS containing 0.1% TWEEN 20 (PBT) and incubated in 1 μg/ml DAPI in PBT for 30 minutes at room temperature. Embryos were flat-mounted on glass slides with Cytoseal 60 and imaged with either a Leica M205 FA epifluorescent microscope or an Olympus FluoView 1000 confocal microscope. Confocal projections contained stacks of six 3 μm images. A predefined box was positioned at the most posterior region of the notochord and included the most lateral GFP-positive cell in a kidney field. The cells that were positive for both GFP and DAPI within this box were counted manually with the aid of ImageJ. Variances of the control and PTBA-treated groups were compared by F test and found to be unequal. Therefore, a two-tailed t test with unequal variance was used to determine significance (α=0.05).
For all second-generation compounds, the cad17:EGFP transgene is used as the primary readout to assay for expansion of kidney field (FIG. 35). PTBA analogues that expand cad17:EGFP expression are subjected to a secondary screen. […] Such compounds are assessed in target efficacy and toxicity assays.

For test [2], the system named is Acetylated Histone H3 K9 (Ac-H3 K9). The test is described as follows: Renal histone H3 K9 acetylation after single injection in CD1 mice. The class given is in vivo, mouse. The method, then:
PTBA analogues are soluble in 1% DMSO/water, are administered subcutaneously as a single injection in adult CD1 mice, and kidneys harvested at 12, 24 and 48 hours to evaluate histone acetylation (which should increase with HDACi). PTBA analogs are used at a dose range determined from comparative dose efficacy with m4PTB in the secondary zebrafish screen. Acetylated Histone H3 K9 (Ac-H3 K9) is evaluated, as this is most easily detected by Western blot in nuclear extracts from mouse renal tissues. Preliminary studies compared the effect of Trichostatin A (an established, but toxic HDACi) at an effective dose in the zebrafish screen ([…]) with an equivalent dose of m4PTB (0.8 mM), and then X2 and X4 dose increments (molar concentration in vivo based on estimate uniform distribution relative to body mass of water). 3.4 mg/kg (4×) m4PTB induced maximal expression of Ac-H3 K9 after 24 hours (FIG. 36). This effect was increased compared with TSA or lower doses of m4PTB, so we elected to use this dose of m4PTB (3.4 mg/kg) for AKI studies in mice. […]
We evaluated efficacy and effective dosage of a second-generation PTBA analogue, m4PTB, by determining the kinetics of renal Histone H3 K9 acetylation (H3K9Ac) following a single SC injection. […]

The structures appear in SMILES notation.

As to `O=C(O)CCCSc1ccccc1` [PTBA, 4-(phenylthio)butanoic acid], in test [1], the “lhx1a expansion class, 800 nM” value is “+/−”. For the same molecule, the “embryos with expanded lhx1a expression” value is listed as 97% in test [1] (0.5% DMSO at 5 hpf, 3 μM PTBA at 8 hpf) and 19% in test [1] (injected with 200 pg DN-RARα mRNA, then 3 μM PTBA at 5 hpf). In test [1] (Danio rerio, 800 nM, read-out: embryos with expanded lhx1a expression (% expansion)), the responders at 0.8 µM was < 25%. In addition, the “increase in the number of renal progenitor cells” value with renal progenitor cells (3 μM, 10-somite Tg(lhx1a:EGFP)pt303 embryos) is on record as 2.4 fold.

As to `COC(=O)CCCSc1ccccc1` [UPHD-00025, methyl 4-(phenylsulfanyl) butanoate], in test [1], the “lhx1a expansion class, 800 nM” value is on record as “+/−”. Also, the “effective dose for the renal progenitor assay” value in test [1] (zebrafish, in vivo) is ~800 nM. The “lowest dose at which expansion of the renal progenitor cell population starts to be seen” value in the test with renal progenitor cells (lhx1a:EGFP transgene, data not shown) is recorded as 600 nM. For the same molecule, the “persistence of H3K9Ac induction” value in test [2] (3.4 mg/kg single SC injection) stood at 24 h. Besides, in test [2] (single SC injection, after 24 hours), the “dose inducing maximal Ac-H3 K9 expression in kidney” value was found to be 3.4 mg/kg.
